In patent US20260138969A1 (Korea Research Institute of Chemical Technology, priority 2023, published 2026):
Marks after values point to notes of the source that are not given here.

Assays:
[1] = test system: SOD1 G93A transgenic ALS mouse model; test: SOD1 G93A transgenic ALS mouse model: grip strength; assay type: in vivo; settings: 30 mg/kg PO QD from 8 weeks of age; vs G2
Description: (§1) The test drug was administered once daily (QD) via oral administration (PO) in a solution of 5 mL/kg from 8 weeks of age until death. Body weight was measured weekly, and disease score was measured daily from 8 weeks until the death of the animal. Motor behavior tests (grip strength) and neurological score tests (modified Irwin test) were performed at 9, 11, 13, 15, 17, 19, and 21 weeks, respectively. The survival of the mice was monitored daily.
Grip strength measurements were performed on mice aged 9, 11, 13, 15, 17, 19, and 21 weeks of age. The mouse was placed on a grip strength measurement device (San Diego Instruments, San Diego, USA) in such a way that the mouse grabbed the handle of a small mesh with its front paws. I put the mouse down on the platform and then slowly pulled the handle […] until the mouse released the handle. The device automatically measured the grip strength of the mouse in grams. Five scores per mouse were recorded consecutively in a one-day session.

BV2 cells = test: Anti-inflammatory efficacy: LPS-induced TNF-α secretion (ELISA); assay type: cell-based; settings: 0.1, 0.3, 1 μM pretreatment 1 hour, LPS 100 μg/ml 24 hours; FIG. 2
Description: BV2 cells (2×10^4 cells per well) were incubated for 24 hours in a 96-well culture plate. Subsequently, the Example compounds were added in 0.1 μM, 0.3 μM, and 1 μM, respectively, for 1 hour, followed by the addition of LPS 100 μg/ml and incubated for 24 hours. After incubation, conditioned medium (CM) was harvested and centrifuged at 2000 rpm. After separating the supernatant of the solution after centrifugation, the TNF-α secreted from the cell culture medium was measured using the corresponding ELISA kit (LABISKOMA, Seoul, Korea).

[2] = TG synthesis inhibition in FFA-treated HepG2 cells; assay type: cell-based, human; settings: human, HepG2 cells, read-out: Cell Viability (% of HepG2 control)
HepG2 cells = test: TG synthesis inhibition in FFA-treated HepG2 cells; assay type: cell-based, human
[3] = test system: SOD1 G93A transgenic ALS mouse model; test: SOD1 G93A transgenic ALS mouse model: disease symptom score (ALSTDI); assay type: in vivo; settings: 30 mg/kg PO QD from 8 weeks of age; vs G2
Description: as §1
From 8 weeks of age, the neurological scoring system developed by the ALS Therapy Development Institute (ALSTDI) method was used to evaluate disease symptoms in mice. Both hind legs were scored based on Table 14 below.

Which grip strength [1] does the source give for `Cc1cc(F)c(C(=O)Nc2cccc(-n3nnc4c3CCCC4)n2)cc1-n1cnc(C2CC2)c1` [Example 3, 5-(4-cyclopropyl-1H-imidazole-1-yl)-2-fluoro-4-methyl-N-(6-(4,5,6,7-tetrahydro-1H-benzo[d][1,2,3]triazole-1-yl)pyridine-2-yl)benzamide] here?
The grip strength was “tended to increase grip strength compared to group G2, and the grip strength increased significantly from 19 weeks”.

And the “TNF-α secretion induced by LPS” value (BV2 cells)?
The value was “reduced TNF-α secretion at all concentrations compared to Selonsertib”.

And the viability at 48 h, 0.3 μM ([2]; FFA 1 mM + 0.3 μM)?
Its viability at 48 h, 0.3 μM is 99.1%.

And the viability at 48 h, 1 μM ([2]; FFA 1 mM + 1 μM)?
Its viability at 48 h, 1 μM is 93.1%.

And the “TG Level (% of HepG2 control)” value (HepG2 cells; FFA 1 mM + 0.3 μM)?
Its value is 117.38 * % of HepG2 control.

What about the “TG Level (% of HepG2 control)” value (HepG2 cells; FFA 1 mM + 1 μM) of the same molecule?
The value was 106.59 * % of HepG2 control.

What about the disease symptom score [3] of the same molecule?
Its disease symptom score is “tended to have a lower disease symptom score compared to G2 during the observation period, and decreased significantly at 20 weeks”.
